From PubChem BioAssay AID2060499 (Molecular Pharmacology Branch, DTP, NCI, 2025)

System: 777334-354-R2-J4-PDC tumor spheroids with HUVEC/MSC, viability
Assay: Anticancer human tumor 777334-354-R2-J4-PDC patient-derived pancreatic adenocarcinoma cell line growth inhibition [GQUAD]
Settings: for IC50: curve of first compound; for viability, T/C: stronger effect = lower value; active means viability on the fitted dose curve at most 10% of control; inactive means the rest
In short: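 Multi-cell-type spheroids of tumor cells with HUVEC and mesenchymal stem cells, treated with drug combinations. Concentrations descend in half-log steps from near clinical Cmax, or from 10 microM where Cmax is unknown; viability read-out.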

[1] = second compound 0.0316 µM, first compound 0.0316 µM
[2] = second compound 0.0316 µM, first compound 0.1 µM
[3] = second compound 0.0316 µM, first compound 0.316 µM
[4] = second compound 0.0316 µM, first compound 1 µM
[5] = second compound 0.0316 µM, first compound 3.16 µM
[6] = second compound 0.0316 µM, first compound 10 µM
[7] = second compound 0.1 µM, first compound 0.0316 µM
[8] = second compound 0.1 µM, first compound 0.1 µM
[9] = second compound 0.1 µM, first compound 0.316 µM
[10] = second compound 0.1 µM, first compound 1 µM
[11] = second compound 0.1 µM, first compound 3.16 µM
[12] = second compound 0.1 µM, first compound 10 µM
[13] = second compound 0.316 µM, first compound 0.0316 µM
[14] = second compound 0.316 µM, first compound 0.1 µM
[15] = second compound 0.316 µM, first compound 0.316 µM
[16] = second compound 0.316 µM, first compound 1 µM
[17] = second compound 0.316 µM, first compound 3.16 µM
[18] = second compound 0.316 µM, first compound 10 µM
[19] = second compound 1 µM, first compound 0.0316 µM
[20] = second compound 1 µM, first compound 0.1 µM
[21] = second compound 1 µM, first compound 0.316 µM
[22] = second compound 1 µM, first compound 1 µM
[23] = second compound 1 µM, first compound 3.16 µM
[24] = second compound 1 µM, first compound 10 µM
[25] = second compound 3.16 µM, first compound 0.0316 µM
[26] = second compound 3.16 µM, first compound 0.1 µM
[27] = second compound 3.16 µM, first compound 0.316 µM
[28] = second compound 3.16 µM, first compound 1 µM
[29] = second compound 3.16 µM, first compound 3.16 µM
[30] = second compound 3.16 µM, first compound 10 µM
[31] = second compound 10 µM, first compound 0.0316 µM
[32] = second compound 10 µM, first compound 0.1 µM
[33] = second compound 10 µM, first compound 0.316 µM
[34] = second compound 10 µM, first compound 1 µM
[35] = second compound 10 µM, first compound 3.16 µM
[36] = second compound 10 µM, first compound 10 µM
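Further: spheroids exposed to compounds for 7 days before readout.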

C#Cc1c(F)ccc2cc(O)cc(-c3ncc4c(N5CC6CCC(C5)N6)nc(OCC56CCCN5CC(F)C6)nc4c3F)c12 (stereo not drawn) + CN(C)c1ccc(Nc2c3ccc(NC(=O)CCN4CCCC4)cc3nc3cc(NC(=O)CCN4CCCC4)ccc23)cc1
inactive: viability, T/C [1] 51% | viability, T/C [2] 38.9% | viability, T/C [3] 29.8% | viability, T/C [4] 31.2% | viability, T/C [5] 30.1% | viability, T/C [6] 22.6% | viability, T/C [7] 52.3% | viability, T/C [8] 38.7% | viability, T/C [9] 34.3% | viability, T/C [10] 28.4% | viability, T/C [11] 29.1% | viability, T/C [12] 21.5% | viability, T/C [13] 46.9% | viability, T/C [14] 35% | viability, T/C [15] 36% | viability, T/C [16] 29% | viability, T/C [17] 26.5% | viability, T/C [18] 22.4% | viability, T/C [19] 37.1% | viability, T/C [20] 38% | viability, T/C [21] 31.4% | viability, T/C [22] 27.8% | viability, T/C [23] 25.4% | viability, T/C [24] 23.7% | viability, T/C [25] 38.6% | viability, T/C [26] 34.4% | viability, T/C [27] 32% | viability, T/C [28] 24.2% | viability, T/C [29] 22.6% | viability, T/C [30] 17.8% | viability, T/C [31] 36.3% | viability, T/C [32] 32.3% | viability, T/C [33] 27.5% | viability, T/C [34] 19.6% | viability, T/C [35] 15.2%
active: viability, T/C [36] 10.3%
33.7 nM: IC50 (second compound 0.0316 µM)
36.1 nM: IC50 (second compound 0.1 µM)
< 31.6 nM: IC50 (second compound 0.316 µM) | IC50 (second compound 1 µM) | IC50 (second compound 3.16 µM) | IC50 (second compound 10 µM)

CC(=O)O[C@H]1C(=O)[C@@]2(C)[C@H]([C@H](OC(=O)c3ccccc3)[C@]3(O)C[C@H](OC(=O)[C@H](O)[C@@H](NC(=O)c4ccccc4)c4ccccc4)C(C)=C1C3(C)C)[C@]1(OC(C)=O)CO[C@@H]1C[C@@H]2O + CN(C)c1ccc(Nc2c3ccc(NC(=O)CCN4CCCC4)cc3nc3cc(NC(=O)CCN4CCCC4)ccc23)cc1
222 nM: IC50 (second compound 0.0316 µM)
207 nM: IC50 (second compound 10 µM)
190 nM: IC50 (second compound 0.316 µM)
inactive: viability, T/C [1] 76.8% | viability, T/C [2] 57.2% | viability, T/C [3] 48.6% | viability, T/C [4] 39.2% | viability, T/C [5] 43.2% | viability, T/C [6] 46.2% | viability, T/C [7] 72.7% | viability, T/C [8] 58.1% | viability, T/C [9] 46.5% | viability, T/C [10] 38.9% | viability, T/C [11] 49.7% | viability, T/C [12] 48.5% | viability, T/C [13] 73.9% | viability, T/C [14] 54.4% | viability, T/C [15] 47% | viability, T/C [16] 41.2% | viability, T/C [17] 49.6% | viability, T/C [18] 42% | viability, T/C [19] 59.2% | viability, T/C [20] 50.6% | viability, T/C [21] 40.5% | viability, T/C [22] 39.3% | viability, T/C [23] 39% | viability, T/C [24] 35.1% | viability, T/C [25] 65.8% | viability, T/C [26] 51% | viability, T/C [27] 38.4% | viability, T/C [28] 45.6% | viability, T/C [29] 44.2% | viability, T/C [30] 39.4% | viability, T/C [31] 70% | viability, T/C [32] 51.8% | viability, T/C [33] 51.2% | viability, T/C [34] 46.5% | viability, T/C [35] 41.8% | viability, T/C [36] 46.3%
220 nM: IC50 (second compound 0.1 µM)
89.8 nM: IC50 (second compound 1 µM)
93.3 nM: IC50 (second compound 3.16 µM)

CCCS(=O)(=O)Nc1ccc(F)c(C(=O)c2c[nH]c3ncc(-c4ccc(Cl)cc4)cc23)c1F + CN(C)c1ccc(Nc2c3ccc(NC(=O)CCN4CCCC4)cc3nc3cc(NC(=O)CCN4CCCC4)ccc23)cc1
6420 nM: IC50 (second compound 10 µM)
8710 nM: IC50 (second compound 0.316 µM)
8400 nM: IC50 (second compound 1 µM)
8170 nM: IC50 (second compound 0.0316 µM)
inactive: viability, T/C [1] 93% | viability, T/C [2] 97% | viability, T/C [3] 115% | viability, T/C [4] 115% | viability, T/C [5] 116% | viability, T/C [6] 37.6% | viability, T/C [7] 92.5% | viability, T/C [8] 105% | viability, T/C [9] 127% | viability, T/C [10] 128% | viability, T/C [11] 151% | viability, T/C [12] 37.6% | viability, T/C [13] 101% | viability, T/C [14] 98.5% | viability, T/C [15] 130% | viability, T/C [16] 117% | viability, T/C [17] 152% | viability, T/C [18] 40.5% | viability, T/C [19] 92.4% | viability, T/C [20] 98.6% | viability, T/C [21] 107% | viability, T/C [22] 124% | viability, T/C [23] 137% | viability, T/C [24] 39% | viability, T/C [25] 81.6% | viability, T/C [26] 107% | viability, T/C [27] 97.6% | viability, T/C [28] 122% | viability, T/C [29] 131% | viability, T/C [30] 39.8% | viability, T/C [31] 88% | viability, T/C [32] 87% | viability, T/C [33] 87.9% | viability, T/C [34] 93.6% | viability, T/C [35] 81.1% | viability, T/C [36] 30.1%
8420 nM: IC50 (second compound 0.1 µM) | IC50 (second compound 3.16 µM)

O=c1[nH]cc(F)c(=O)[nH]1 + CN(C)c1ccc(Nc2c3ccc(NC(=O)CCN4CCCC4)cc3nc3cc(NC(=O)CCN4CCCC4)ccc23)cc1
8210 nM: IC50 (second compound 10 µM)
inactive: viability, T/C [1] 91.7% | viability, T/C [2] 92% | viability, T/C [3] 99.9% | viability, T/C [4] 84.2% | viability, T/C [5] 66.7% | viability, T/C [6] 55.3% | viability, T/C [7] 96.8% | viability, T/C [8] 96.8% | viability, T/C [9] 92.3% | viability, T/C [10] 90.7% | viability, T/C [11] 80.3% | viability, T/C [12] 60% | viability, T/C [13] 92.6% | viability, T/C [14] 91% | viability, T/C [15] 96.3% | viability, T/C [16] 87.1% | viability, T/C [17] 72.4% | viability, T/C [18] 54.7% | viability, T/C [19] 99.3% | viability, T/C [20] 88.5% | viability, T/C [21] 82.8% | viability, T/C [22] 70.6% | viability, T/C [23] 65.9% | viability, T/C [24] 55% | viability, T/C [25] 93.2% | viability, T/C [26] 81.6% | viability, T/C [27] 79.2% | viability, T/C [28] 77.8% | viability, T/C [29] 71.1% | viability, T/C [30] 54.2% | viability, T/C [31] 76.6% | viability, T/C [32] 79.1% | viability, T/C [33] 76.8% | viability, T/C [34] 71.4% | viability, T/C [35] 60.9% | viability, T/C [36] 47.7%
> 10000 nM: IC50 (second compound 0.0316 µM) | IC50 (second compound 0.1 µM) | IC50 (second compound 0.316 µM) | IC50 (second compound 1 µM) | IC50 (second compound 3.16 µM)
